Data on one compound can be found in patent US5356886A, “Antiviral phosphono-alken derivatives of purines” (Beecham Group p.l.c., priority 1990, dated 1994).

The nature of data set [1]: Cell cytotoxicity test (MTT) in peripheral human lymphocytes. It counts as cell-based. On the procedure: Peripheral human lymphocytes were isolated by density gradient centrifugation from blood donations of healthy volunteers. The `buffy coat`-fractions of these donations were provided by blood donation centres.
The buffy coat was diluted 1:1 with sterile phosphate buffered saline (PBS; 50 mM sodium phosphate, pH 7.4, 0,9% sodium chloride) and subsequently layered over Ficoll. Following centrifugation (30 minutes at 400×g) the supernatant was discarded and the interphase containing the lymphocytes was recovered. The lymphocytes were washed two times in PBS and were resuspended finally in cell culture medium.
A viability staining was performed by means of the trypan blue dye-exclusion method. The concentration of cells in the suspension and the percentage of viable cells were calculated. […]
The lymphocytes were cultivated in an incubator with a humidified atmosphere and 5% CO2 for 48 to 64 hours at 37° C. Following this incubation period, cells were harvested by centrifugation, resuspended in cell culture medium and counted. […]
Survival and proliferation of the lymphocytes grown in the presence of the compound were measured by a quantitative colorimetric assay. […] The amount of product which is a function of cell number and metabolic cellular activity was quantified photometrically. By this assay, potential cytotoxic and cytostatic effects of compounds towards lymphocytes were detected precisely. […]

The subject of another data set is Visna Virus. The experiment in a line: CPE Inhibition Test (Established Monolayer) for Lentiviruses, visna virus (strain K184) in sheep choroid plexus cells. Type of data set: cell-based. Conditions: Visna-maedi virus; visna virus strain K184, SCP cells; read-out: MIC (minimum concentration giving complete protection of the cell monolayers). The protocol: 3×10^4 sheep choroid plexus (SCP) cells were plated into individual wells of a 96 well microtitre plate in 100 μl of Eagle's MEM with Hanks' salts containing 10% heat inactivated foetal calf serum (FCS). When monolayers had become established (after 1 or 2 days growth) they were washed with 200 μl of maintenance medium (Eagle's MEM with Hanks' salts containing 0.5% FCS) and infected with 100 μl of visna virus (strain K184) in maintenance medium (30 TCID50/ml). Test samples were diluted with maintenance medium in further 96 well microtitre plates over the range 200-0.06 μg/ml by 3-fold dilution steps. 100 μl of the diluted samples was then transferred directly onto virus-infected monolayers (final concentration range therefore 100-0.03 μg/ml) and […] containing 5% CO2 until virus-induced CPE was maximal in the untreated virus-infected controls (usually 12-14 days). The plates were fixed with formal saline and stained with crystal violet. Virus-induced CPE was then scored microscopically and the minimum concentration of sample giving complete protection of the cell monolayers (MIC) determined.

For `Nc1nc2c(ncn2OCC/C=C/P(=O)(O)O)c(=O)[nH]1` [Example 1, (E)-9-(4-phosphonobut-3-enyloxy)guanine], the CC50 (in general, the concentration giving 50% cytotoxicity) at 96 h in data set [1] stood at 1 µM. The cytotoxicity at 0.1 µM in data set [1] (at 0.1 μM, read-out: Slight toxicity (inhibition)) came to 18%. In addition, the MIC in the data set with Visna Virus is below 3 ng/mL.
